This is an account of results in patent US11535629B2, “Dioxoloisoquinolinone derivatives and use thereof” (HANMI PHARMACEUTICAL CO., LTD., priority 2020, dated 2022).

The test system of one experiment is KARPAS-422 cells. Put plainly: Cell growth inhibition test (CTG method). It counts as cell-based. The conditions noted are these: KARPAS-422 (EZH2^Y641N mutant), culturing for 7 days, read-out: Cell growth inhibitory activity (GI50, nM) KARPAS-422 (EZH2^Y641N mutant). As to the method: The cultured cell strain was prepared at 1.8×10^4 cells/400 μL and placed in a 48-well plate.

In the next experiment the target is EZH1 (Homo sapiens (Human), UniProt Q92800). Nature of the experiment: EZH1 methyltransferase inhibitory activity (radiometric scintillation proximity assay).
The mark [1] stands for this setting: Homo sapiens, KARPAS-422, 168 h.
The mark [2] stands for this setting: read-out: Enzyme inhibitory activity (IC50, nM) EZH1, 2.3 nmol/L EZH1, 90 minutes at room temperature.

Like-named read-outs stand apart in the source and are kept apart here.

Chain of EZH1 (Q92800 whole entry): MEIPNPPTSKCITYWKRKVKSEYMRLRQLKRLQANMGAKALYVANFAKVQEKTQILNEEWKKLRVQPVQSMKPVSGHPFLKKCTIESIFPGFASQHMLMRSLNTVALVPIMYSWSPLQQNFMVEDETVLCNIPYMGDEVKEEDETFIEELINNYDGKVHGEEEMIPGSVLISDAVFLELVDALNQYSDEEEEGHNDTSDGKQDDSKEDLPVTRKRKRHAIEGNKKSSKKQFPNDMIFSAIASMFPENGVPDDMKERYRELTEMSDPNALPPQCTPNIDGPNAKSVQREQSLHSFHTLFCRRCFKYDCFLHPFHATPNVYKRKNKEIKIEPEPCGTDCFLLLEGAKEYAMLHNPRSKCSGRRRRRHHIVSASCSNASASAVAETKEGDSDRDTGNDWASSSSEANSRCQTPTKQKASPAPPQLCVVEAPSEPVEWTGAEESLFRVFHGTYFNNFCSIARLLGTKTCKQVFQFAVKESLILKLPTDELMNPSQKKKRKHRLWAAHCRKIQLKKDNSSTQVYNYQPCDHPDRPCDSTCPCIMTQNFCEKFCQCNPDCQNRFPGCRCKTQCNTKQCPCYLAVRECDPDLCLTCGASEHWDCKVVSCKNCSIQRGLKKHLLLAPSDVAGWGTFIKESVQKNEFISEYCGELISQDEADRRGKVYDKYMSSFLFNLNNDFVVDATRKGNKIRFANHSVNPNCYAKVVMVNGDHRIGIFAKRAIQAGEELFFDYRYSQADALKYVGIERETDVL
Chain of EZH1 (O75530 whole entry partner): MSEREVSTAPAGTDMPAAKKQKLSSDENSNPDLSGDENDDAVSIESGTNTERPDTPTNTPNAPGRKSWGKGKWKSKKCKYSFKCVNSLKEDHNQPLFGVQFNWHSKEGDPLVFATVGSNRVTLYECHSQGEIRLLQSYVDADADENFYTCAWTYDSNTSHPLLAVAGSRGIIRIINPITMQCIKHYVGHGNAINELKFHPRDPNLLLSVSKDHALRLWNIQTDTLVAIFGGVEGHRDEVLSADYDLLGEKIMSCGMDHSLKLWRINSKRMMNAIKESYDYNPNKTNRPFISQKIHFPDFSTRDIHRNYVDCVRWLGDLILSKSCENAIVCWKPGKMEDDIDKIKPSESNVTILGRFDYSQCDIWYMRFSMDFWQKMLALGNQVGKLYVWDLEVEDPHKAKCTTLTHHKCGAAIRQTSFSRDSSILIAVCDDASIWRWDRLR
Chain of EZH1 (Q15022 whole entry partner): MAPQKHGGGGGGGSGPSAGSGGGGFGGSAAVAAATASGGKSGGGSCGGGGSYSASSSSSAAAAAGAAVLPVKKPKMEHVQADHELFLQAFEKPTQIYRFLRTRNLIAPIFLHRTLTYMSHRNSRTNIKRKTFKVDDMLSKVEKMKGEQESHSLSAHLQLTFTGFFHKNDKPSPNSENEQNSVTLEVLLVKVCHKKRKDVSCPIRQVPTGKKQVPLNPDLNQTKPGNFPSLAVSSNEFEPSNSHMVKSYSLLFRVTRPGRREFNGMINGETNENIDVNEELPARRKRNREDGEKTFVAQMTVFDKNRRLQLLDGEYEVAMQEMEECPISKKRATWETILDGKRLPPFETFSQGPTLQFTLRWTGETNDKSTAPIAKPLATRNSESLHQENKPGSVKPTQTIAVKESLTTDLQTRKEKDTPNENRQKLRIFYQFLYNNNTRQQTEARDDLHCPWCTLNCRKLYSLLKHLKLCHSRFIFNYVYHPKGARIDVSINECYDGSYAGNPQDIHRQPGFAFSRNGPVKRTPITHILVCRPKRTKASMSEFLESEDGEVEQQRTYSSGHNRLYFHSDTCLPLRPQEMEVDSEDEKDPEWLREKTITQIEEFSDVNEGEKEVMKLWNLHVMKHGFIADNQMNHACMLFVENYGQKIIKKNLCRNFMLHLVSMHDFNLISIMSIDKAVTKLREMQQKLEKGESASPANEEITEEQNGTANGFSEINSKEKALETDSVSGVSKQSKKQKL
Chain of EZH1 (Q09028 whole entry partner): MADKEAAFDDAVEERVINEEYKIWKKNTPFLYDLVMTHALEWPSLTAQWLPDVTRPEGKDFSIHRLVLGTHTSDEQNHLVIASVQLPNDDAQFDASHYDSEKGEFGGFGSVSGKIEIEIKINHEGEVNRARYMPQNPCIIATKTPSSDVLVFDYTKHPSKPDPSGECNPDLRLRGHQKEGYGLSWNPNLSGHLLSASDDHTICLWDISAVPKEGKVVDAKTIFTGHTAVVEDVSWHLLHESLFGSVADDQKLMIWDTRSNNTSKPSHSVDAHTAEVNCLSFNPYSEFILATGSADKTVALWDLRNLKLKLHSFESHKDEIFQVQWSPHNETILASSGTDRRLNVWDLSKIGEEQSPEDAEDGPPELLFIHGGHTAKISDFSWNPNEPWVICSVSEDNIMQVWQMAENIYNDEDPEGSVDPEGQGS
Chain of EZH1 (Q6ZN18 whole entry partner): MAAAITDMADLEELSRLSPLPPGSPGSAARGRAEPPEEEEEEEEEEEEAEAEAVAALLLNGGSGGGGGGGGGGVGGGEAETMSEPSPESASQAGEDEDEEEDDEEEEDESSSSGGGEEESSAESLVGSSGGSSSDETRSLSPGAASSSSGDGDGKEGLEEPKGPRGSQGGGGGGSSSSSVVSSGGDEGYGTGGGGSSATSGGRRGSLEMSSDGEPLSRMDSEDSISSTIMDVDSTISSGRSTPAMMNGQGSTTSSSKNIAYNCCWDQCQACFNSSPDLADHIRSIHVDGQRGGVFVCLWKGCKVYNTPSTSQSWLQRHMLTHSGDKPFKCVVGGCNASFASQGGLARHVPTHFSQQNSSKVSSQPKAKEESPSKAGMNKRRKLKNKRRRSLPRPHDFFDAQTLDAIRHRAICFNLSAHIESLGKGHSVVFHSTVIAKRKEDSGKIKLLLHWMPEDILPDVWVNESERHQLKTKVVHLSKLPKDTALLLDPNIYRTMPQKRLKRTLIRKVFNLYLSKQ
Experimental for EZH1: The inhibitory activity of the synthesized compounds above against EZH1 or EZH2 methyltransferase was measured. The experiments were consigned to Reaction Biology, and EZH1 or EZH2 activity was measured using a radiometric scintillation proximity assay. […] The buffer solution was comprised of 50 mmol/L Tris-HCl pH 8.0, 50 mmol/L NaCl, 1 mmol/L EDTA, 1 mmoL/L DTT, 1 mmol/L PMSF and 1% DMSO. Trichloroacetic acid was added to end the reaction, and SPA beads coated with PVT streptavidin were added followed by 1 hour reaction at room temperature. A TopCount NXT plate reader was used to measure the methylation value of the substrate peptide. The measured values were converted to percent activity, setting the mean value for wells treated with DMSO as 100% and the background mean value as 0%.

By GI50 is commonly meant the concentration at which growth is held to half of that of the control. What is called IC50 is the midpoint of a concentration-inhibition curve. Take `Cc1cc(C)c(CN2CCc3c(Cl)c4c(c(C)c3C2=O)OC(C)(C23CCC(N(C)C)(CC2)CC3)O4)c(=O)[nH]1` (single isomer, unassigned) [Compound 2, 9-chloro-6-((4,6-dimethyl-2-oxo-1,2-dihydropyridin-3-yl)methyl)-2-(4-(dimethylamino)bicyclo[2.2.2]octan-1-yl)-2,4-dimethyl-7,8-dihydro-[1,3]dioxolo[4,5-g]isoquinolin-5(6H)-one]: in the experiment with KARPAS-422 cells, the GI50 is 4.5 nM. The compound further registered an IC50 on EZH1 of 15 nM.
For `COc1cc(C)[nH]c(=O)c1CN1CCc2c(Cl)c3c(c(C)c2C1=O)OC(C)(C12CCC(N(C)C)(CC1)CC2)O3` (single isomer, unassigned) [Compound 5, 9-chloro-2-(4-(dimethylamino)bicyclo[2.2.2]octan-1-yl)-6-((4-methoxy-6-methyl-2-oxo-1,2-dihydropyridin-3-yl)methyl)-2,4-dimethyl-7,8-dihydro[1,3]dioxolo[4,5-g]isoquinolin-5(6H)-one], in that order: 4.5 nM and 17 nM.
As to `CSc1cc(C)[nH]c(=O)c1CN1CCc2c(Cl)c3c(c(C)c2C1=O)OC(C)(C12CCC(N(C)C)(CC1)CC2)O3` (single isomer, unassigned) [Compound 8, 9-chloro-2-(4-(dimethylamino)bicyclo[2.2.2]octan-1-yl)-2,4-dimethyl-6-((6-methyl-4-(methylthio)-2-oxo-1,2-dihydropyridin-3-yl)methyl)-7,8-dihydro[1,3]dioxolo[4,5-g]isoquinolin-5(6H)-one], in the experiment on KARPAS-422 cells, the GI50 came out at 3.9 nM. Moreover, 167 nM corresponded to half-maximal inhibition against EZH1 (IC50).
For `Cc1cc(C)c(CN2CCc3c(Br)c4c(c(C)c3C2=O)OC(C)(C23CCC(N(C)C)(CC2)CC3)O4)c(=O)[nH]1` (single isomer, unassigned) [Compound 11, 9-bromo-6-((4,6-dimethyl-2-oxo-1,2-dihydropyridin-3-yl)methyl)-2-(4-(dimethylamino)bicyclo[2.2.2]octan-1-yl)-2,4-dimethyl-7,8-dihydro-[1,3]dioxolo[4,5-g]isoquinolin-5(6H)-one], in that order: 3.8 to 12 nM and 15 nM.
Turning to `Cc1cc(C)c(CN2CCc3c(C)c4c(c(C)c3C2=O)OC(C)(C23CCC(N(C)C)(CC2)CC3)O4)c(=O)[nH]1` (single isomer, unassigned) [Compound 23, 6-((4,6-dimethyl-2-oxo-1,2-dihydropyridin-3-yl)methyl)-2-(4-(dimethylamino)bicyclo[2.2.2]octan-1-yl)-2,4,9-trimethyl-7,8-dihydro-[1,3]dioxolo[4,5-g]isoquinolin-5(6H)-one], the 50% growth inhibitory concentration (GI50) in the experiment on KARPAS-422 cells (setting [1]) lay in the range of 3.7 to 6.8 nM. At EZH1, this compound returned an IC50 of 12 nM.
On to `Cc1cc(C)c(CN2CCc3c(c(C)c4c(c3-c3ccco3)O[C@](C)([C@H]3CC[C@H](N(C)C)CC3)O4)C2=O)c(=O)[nH]1` [Compound 30, (R)-6-((4,6-dimethyl-2-oxo-1,2-dihydropyridin-3-yl)methyl)-2-(trans-4-(dimethylamino)cyclohexyl)-9-(furan-2-yl)-2,4-dimethyl-7,8-dihydro-[1,3]dioxolo[4,5-g]isoquinolin-5(6H)-one], for which the GI50 in the experiment on KARPAS-422 cells (setting [1]) lay within 3.9 to 8.4 nM. This compound gave an IC50 on EZH1 of 8.3 to 10 nM.
`Cc1cc(C)c(CN2CCc3c(c(C)c4c(c3-c3cccs3)O[C@](C)([C@H]3CC[C@H](N(C)C)CC3)O4)C2=O)c(=O)[nH]1` [Compound 32, (R)-6-((4,6-dimethyl-2-oxo-1,2-dihydropyridin-3-yl)methyl)-2-(trans-4-(dimethylamino)cyclohexyl)-2,4-dimethyl-9-(thiophen-2-yl)-7,8-dihydro-[1,3]dioxolo[4,5-g]isoquinolin-5(6H)-one]: the GI50 in the experiment with KARPAS-422 cells (setting [1]) came out at 3.4 nM. The IC50 on EZH1 (setting [2]) stood at 12 nM.
For `Cc1cc(C)c(CN2CCc3c(c(C)c4c(c3-c3ccncc3)O[C@](C)([C@H]3CC[C@H](N(C)C)CC3)O4)C2=O)c(=O)[nH]1` [Compound 34, (R)-6-((4,6-dimethyl-2-oxo-1,2-dihydropyridin-3-yl)methyl)-2-(trans-4-(dimethylamino)cyclohexyl)-2,4-dimethyl-9-(pyridin-4-yl)-7,8-dihydro-[1,3]dioxolo[4,5-g]isoquinolin-5(6H)-one], in that order: 3.7 nM and 32 nM.
For `Cc1cc(C)c(CN2CCc3c(c(C)c4c(c3-c3ccc(C)o3)O[C@](C)([C@H]3CC[C@H](N(C)C)CC3)O4)C2=O)c(=O)[nH]1` [Compound 40, (R)-6-((4,6-dimethyl-2-oxo-1,2-dihydropyridin-3-yl)methyl)-2-(trans-4-(dimethylamino)cyclohexyl)-2,4-dimethyl-9-(5-methylfuran-2-yl)-7,8-dihydro-[1,3]dioxolo[4,5-g]isoquinolin-5(6H)-one], in that order: 4.4 to 5.5 nM and 22 nM.
For `Cc1cc(C)c(CN2CCc3c(c(C)c4c(c3-c3cccnc3)O[C@](C)([C@H]3CC[C@H](N(C)C)CC3)O4)C2=O)c(=O)[nH]1` [Compound 44, (R)-6-((4,6-dimethyl-2-oxo-1,2-dihydropyridin-3-yl)methyl)-2-(trans-4-(dimethylamino)cyclohexyl)-2,4-dimethyl-9-(pyridin-3-yl)-7,8-dihydro-[1,3]dioxolo[4,5-g]isoquinolin-5(6H)-one], in that order: 5.1 nM and 14 nM.
With `Cc1cc(C)c(CN2CCc3c(c(C)c4c(c3-c3cccn3C)O[C@](C)([C@H]3CC[C@H](N(C)C)CC3)O4)C2=O)c(=O)[nH]1` [Compound 48, (R)-6-((4,6-dimethyl-2-oxo-1,2-dihydropyridin-3-yl)methyl)-2-(trans-4-(dimethylamino)cyclohexyl)-2,4-dimethyl-9-(1-methyl-1H-pyrrol-2-yl)-7,8-dihydro-[1,3]dioxolo[4,5-g]isoquinolin-5(6H)-one], the GI50 with KARPAS-422 cells (setting [1]) stood at 5.5 nM. The IC50 at EZH1 (setting [2]) was 20 nM.
Regarding `Cc1cc(C)c(CN2CCc3c(c(C)c4c(c3-c3ccsc3)O[C@](C)([C@H]3CC[C@H](N(C)C)CC3)O4)C2=O)c(=O)[nH]1` [Compound 50, (R)-6-((4,6-dimethyl-2-oxo-1,2-dihydropyridin-3-yl)methyl)-2-(trans-4-(dimethylamino)cyclohexyl)-2,4-dimethyl-9-(thiophen-3-yl)-7,8-dihydro-[1,3]dioxolo[4,5-g]isoquinolin-5(6H)-one], the concentration for 50% growth inhibition (GI50) in the experiment with KARPAS-422 cells (setting [1]) amounted to 4.9 nM. On EZH1 (setting [2]), the IC50 came out at 22 nM.
For `Cc1cc(C)c(CN2CCc3c(c(C)c4c(c3-c3cncs3)O[C@](C)([C@H]3CC[C@H](N(C)C)CC3)O4)C2=O)c(=O)[nH]1` [Compound 52, (R)-6-((4,6-dimethyl-2-oxo-1,2-dihydropyridin-3-yl)methyl)-2-(trans-4-(dimethylamino)cyclohexyl)-2,4-dimethyl-9-(thiazol-5-yl)-7,8-dihydro-[1,3]dioxolo[4,5-g]isoquinolin-5(6H)-one], in that order: 5.9 nM and 18 nM.
For `Cc1cc(C)c(CNC(=O)c2cc(Cl)c3c(c2C)O[C@@](C)([C@H]2CC[C@H](N(C)C)CC2)O3)c(=O)[nH]1` [Control B, (2R)-7-chloro-2-[trans-4-(dimethylamino)cyclohexyl]-N-[(4,6-dimethyl-2-oxo-1,2-dihydropyridin-3-yl)methyl]-2,4-dimethyl-1,3-benzodioxole-5-carboxamide, reference compound], in the experiment with KARPAS-422 cells (setting [1]), the GI50 lay within 1.3 to 15 nM.
